Source: US20120095739A1, “METHOD FOR DETERMINING THE EFFICACY OF A COMBINATION THERAPY” (priority 2009, published 2012)

Tested on: HIV-1
Conditions: double robust estimation; for Weight (drug weight, PI): difference in viral load response (log scale) vs lopinavir after 8 weeks of stable treatment
Description: Therefore, statistical models were applied to handle these differences. […] E.g.

Substance | difference in viral load change vs patients taking lopinavir (after 8 weeks of stable treatment) [log viral load] | Weight (drug weight, PI)
atazanavir [ATV/r] | −0.02 | −0.02
lopinavir [LPV/r] | – | 0
